Like-named read-outs stand apart in the source and are kept apart here.
How the values were obtained:
[1] = stability of the crystalline structure (X-ray powder diffraction pattern) under normal air humidity conditions; format: physicochemical; settings: kept for several weeks under normal air humidity conditions
Method: “Stable monohydrate” as used herein includes a compound of formula I in the form of a monohydrate which is crystalline and which maintains its crystalline structure for at least 24 hours, e.g. for several weeks, under normal, e.g. normal air humidity, conditions. The crystalline structure of azithromycin in the form of a monohydrate may be determined by its (known) X-ray powder diffraction pattern. The X-ray powder diffraction pattern and the IR spectrum of azithromycin in the form of a monohydrate obtained according to the following examples corresponding to that of known (unstable) azithromycin in the form of a monohydrate.

[2] = normal air humidity conditions, within some hours, stated as known, cited from earlier work

Question: Which “crystallinity and X-ray powder diffraction pattern on storage” value [1] does the source give for `CC[C@H]1OC(=O)[C@H](C)[C@@H](O[C@H]2C[C@@](C)(OC)[C@@H](O)[C@H](C)O2)[C@H](C)[C@@H](O[C@@H]2O[C@H](C)C[C@H](N(C)C)[C@H]2O)[C@](C)(O)C[C@@H](C)CN(C)[C@H](C)[C@@H](O)[C@]1(C)O` [9-deoxo-9a-aza-9a-methyl-9a-homoerythromycin A] here?
Answer: The value was “maintains its crystallinity and its X-ray powder diffraction pattern”.

Question: And the “stability of the crystal structure” value ([2]; listed as azithromycin in the form of a monohydrate)?
Answer: The value was “unstable”.

Question: With `CC[C@H]1OC(=O)[C@H](C)[C@@H](O[C@H]2C[C@@](C)(OC)[C@@H](O)[C@H](C)O2)[C@H](C)[C@@H](O[C@@H]2O[C@H](C)C[C@H](N(C)C)[C@H]2O)[C@](C)(O)C[C@@H](C)CN(C)[C@H](C)[C@@H](O)[C@]1(C)O` [azithromycin in the form of a dihydrate, 9-deoxo-9a-aza-9a-methyl-9a-homoerythromycin A, reference compound] as the compound, how does the “stability of the crystal structure” value [2] read?
Answer: Its value is “not to break down within some hours”.

— US6703372B1, “Macrolides” (Biochemie S.A., priority 1999, dated 2004)
